Measured values reported in ChEMBL document CHEMBL3832058, “DailyMed|setid=78f196d4-110e-45b1-813a-725f52c1a4eb | OXCARBAZEPINE -oxcarbazepine tablet, film coated|Bryant Ranch Prepack”.

Test system: Homo sapiens
Experiment: Pharmacokinetic parameters for Oxcarbazepine and its active metabolite, 10-Monohydroxy Carbazepine evaluated after oral administration of Oxcarbazepine tablets.
Type: ADME, organism-based
Settings: in vivo, dosed compound id 11, dosed compound name OXCARBAZEPINE; for Excretion: tissue Urine

Row | Tmax (dietary status Fasting, gender male, regimen Single dose, tissue Plasma) | t1/2 (dose 300 mg, regimen Single dose, tissue Plasma) | Vd(app) (tissue Plasma) | t1/2 (tissue Plasma) | Excretion | Compound
1 | 4.5 h | 19 h | 49 L | 9 h | 49% | NC(=O)N1c2ccccc2CC(O)c2ccccc21 (configuration not stated) [LICARBAZEPINE]
2 | – | – | – | 2 h | 27% | NC(=O)N1c2ccccc2CC(=O)c2ccccc21 [OXCARBAZEPINE]
